Remaining activity and residual activity data for five compounds are collected here from publication PMC6458995, “MAP4K4 Inhibition Promotes Survival of Human Stem Cell-Derived Cardiomyocytes and Reduces Infarct Size In Vivo” (Cell Stem Cell, 2019).

SMILES strings stand for the structures.

Common to all, as to test: Dundee kinase panel
Common to all, as to format: biochemical
Common to all, as to conditions: for remaining activity at 1 µM: read-out: residual activity

Assay [1] concerns the target T1, MARK4 (Homo sapiens, UniProt Q96L34).
T1 construct: lines 1-140) and Reaction Biology
T1 sequence (Q96L34 1-752): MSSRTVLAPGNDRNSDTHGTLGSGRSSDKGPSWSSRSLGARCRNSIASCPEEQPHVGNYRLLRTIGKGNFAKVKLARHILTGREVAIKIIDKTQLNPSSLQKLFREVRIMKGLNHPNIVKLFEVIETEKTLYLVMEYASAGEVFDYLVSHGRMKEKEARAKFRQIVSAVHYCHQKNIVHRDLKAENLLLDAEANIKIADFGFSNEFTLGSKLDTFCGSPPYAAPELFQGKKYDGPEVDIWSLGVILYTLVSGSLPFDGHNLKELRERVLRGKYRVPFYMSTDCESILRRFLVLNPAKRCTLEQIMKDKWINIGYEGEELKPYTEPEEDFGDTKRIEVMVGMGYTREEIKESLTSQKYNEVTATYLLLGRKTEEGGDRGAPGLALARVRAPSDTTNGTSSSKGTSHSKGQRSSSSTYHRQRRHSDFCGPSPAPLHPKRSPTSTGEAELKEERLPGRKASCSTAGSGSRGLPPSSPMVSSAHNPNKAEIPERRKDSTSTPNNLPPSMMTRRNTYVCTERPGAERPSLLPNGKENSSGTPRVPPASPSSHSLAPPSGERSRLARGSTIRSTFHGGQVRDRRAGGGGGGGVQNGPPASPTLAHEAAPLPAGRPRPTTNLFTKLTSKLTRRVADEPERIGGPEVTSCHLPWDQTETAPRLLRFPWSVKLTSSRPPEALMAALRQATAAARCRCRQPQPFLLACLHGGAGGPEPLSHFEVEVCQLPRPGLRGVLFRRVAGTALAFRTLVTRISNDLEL
Here is the method: (§1) Compounds were screened at 1 μM. For key hits, pIC50 values were then determined by HTRF as above. […] Stability in mouse and human liver microsomes was determined by Cyprotex.

Assay [2] addresses T2, p38g MAPK (Homo sapiens, UniProt P53778).
T2 construct: lines 1-140) and Reaction Biology
T2 sequence (P53778 1-367): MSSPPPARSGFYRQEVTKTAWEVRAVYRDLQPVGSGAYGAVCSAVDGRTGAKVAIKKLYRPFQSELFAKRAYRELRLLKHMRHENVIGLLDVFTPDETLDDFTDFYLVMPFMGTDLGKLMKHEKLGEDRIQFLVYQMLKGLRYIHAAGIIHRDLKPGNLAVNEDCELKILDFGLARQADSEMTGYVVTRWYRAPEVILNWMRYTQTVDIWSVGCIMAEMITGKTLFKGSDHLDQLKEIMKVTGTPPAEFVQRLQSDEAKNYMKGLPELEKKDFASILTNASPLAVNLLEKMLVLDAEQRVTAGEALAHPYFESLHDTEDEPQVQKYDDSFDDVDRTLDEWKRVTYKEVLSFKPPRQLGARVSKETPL
Here is the method:
as §1

For assay [3], the target named is T3, MSK1 (Homo sapiens, UniProt O75582).
T3 construct: lines 1-140) and Reaction Biology
T3 sequence (O75582 whole entry): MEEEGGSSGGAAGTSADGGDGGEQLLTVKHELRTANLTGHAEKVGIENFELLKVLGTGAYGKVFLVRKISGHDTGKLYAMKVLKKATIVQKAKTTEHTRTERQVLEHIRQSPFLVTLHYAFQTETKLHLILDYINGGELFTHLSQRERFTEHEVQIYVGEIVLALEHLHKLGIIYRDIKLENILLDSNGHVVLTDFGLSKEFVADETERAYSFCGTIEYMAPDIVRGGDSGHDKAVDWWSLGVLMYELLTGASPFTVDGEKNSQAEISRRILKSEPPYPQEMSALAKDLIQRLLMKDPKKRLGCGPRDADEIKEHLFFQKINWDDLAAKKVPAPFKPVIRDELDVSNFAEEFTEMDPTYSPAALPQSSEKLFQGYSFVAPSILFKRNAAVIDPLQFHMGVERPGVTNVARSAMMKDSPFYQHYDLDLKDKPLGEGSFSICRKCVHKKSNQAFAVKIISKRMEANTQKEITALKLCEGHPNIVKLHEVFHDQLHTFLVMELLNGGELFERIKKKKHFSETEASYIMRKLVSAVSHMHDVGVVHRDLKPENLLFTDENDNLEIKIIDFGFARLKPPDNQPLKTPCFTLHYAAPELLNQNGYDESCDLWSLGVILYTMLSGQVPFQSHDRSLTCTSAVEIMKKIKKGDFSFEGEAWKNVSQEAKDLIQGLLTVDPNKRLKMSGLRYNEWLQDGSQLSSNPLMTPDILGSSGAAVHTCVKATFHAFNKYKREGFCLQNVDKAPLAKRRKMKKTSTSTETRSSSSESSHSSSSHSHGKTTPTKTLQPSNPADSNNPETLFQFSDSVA
On the procedure:
as §1

The target in assay [4] is T4, TTBK1 (Homo sapiens, UniProt Q5TCY1).
T4 construct: lines 1-140) and Reaction Biology
T4 sequence (Q5TCY1 whole entry): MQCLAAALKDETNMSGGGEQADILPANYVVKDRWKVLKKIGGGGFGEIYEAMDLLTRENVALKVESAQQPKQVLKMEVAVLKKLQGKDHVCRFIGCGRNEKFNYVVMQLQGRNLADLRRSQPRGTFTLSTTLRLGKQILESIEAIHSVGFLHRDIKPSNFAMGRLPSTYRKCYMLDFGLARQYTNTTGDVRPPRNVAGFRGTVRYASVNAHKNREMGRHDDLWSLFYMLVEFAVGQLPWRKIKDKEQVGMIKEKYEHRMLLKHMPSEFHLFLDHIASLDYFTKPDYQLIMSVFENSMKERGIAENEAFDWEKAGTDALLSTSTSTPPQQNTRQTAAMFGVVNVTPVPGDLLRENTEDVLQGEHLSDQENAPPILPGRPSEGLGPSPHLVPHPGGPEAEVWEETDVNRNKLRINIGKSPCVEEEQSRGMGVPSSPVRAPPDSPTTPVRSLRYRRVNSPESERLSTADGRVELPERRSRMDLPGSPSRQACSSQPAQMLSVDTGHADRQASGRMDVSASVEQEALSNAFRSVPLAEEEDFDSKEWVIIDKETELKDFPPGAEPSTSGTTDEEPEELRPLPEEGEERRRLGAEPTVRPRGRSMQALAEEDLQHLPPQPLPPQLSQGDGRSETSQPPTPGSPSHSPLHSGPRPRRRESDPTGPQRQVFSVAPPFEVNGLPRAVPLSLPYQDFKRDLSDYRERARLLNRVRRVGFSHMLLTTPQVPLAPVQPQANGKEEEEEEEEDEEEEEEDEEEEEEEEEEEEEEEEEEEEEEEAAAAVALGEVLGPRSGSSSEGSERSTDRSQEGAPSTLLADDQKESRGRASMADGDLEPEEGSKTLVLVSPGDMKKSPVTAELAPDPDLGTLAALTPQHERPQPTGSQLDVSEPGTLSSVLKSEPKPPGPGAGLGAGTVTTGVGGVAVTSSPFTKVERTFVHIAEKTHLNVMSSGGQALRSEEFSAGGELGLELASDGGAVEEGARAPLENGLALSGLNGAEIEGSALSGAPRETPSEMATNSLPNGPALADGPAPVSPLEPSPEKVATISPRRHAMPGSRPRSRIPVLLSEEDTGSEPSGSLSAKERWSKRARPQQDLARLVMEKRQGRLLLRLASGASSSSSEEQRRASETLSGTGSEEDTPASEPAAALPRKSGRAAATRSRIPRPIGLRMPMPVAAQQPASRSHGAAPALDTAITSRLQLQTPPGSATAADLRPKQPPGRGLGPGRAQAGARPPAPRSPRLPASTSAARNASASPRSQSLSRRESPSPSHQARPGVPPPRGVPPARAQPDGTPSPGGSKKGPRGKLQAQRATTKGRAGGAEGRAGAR
Here is the method: as §1

For assay [5], the target named is T5, RSK1 (Homo sapiens, UniProt Q15418).
T5 construct: lines 1-140) and Reaction Biology
T5 sequence (Q15418 whole entry): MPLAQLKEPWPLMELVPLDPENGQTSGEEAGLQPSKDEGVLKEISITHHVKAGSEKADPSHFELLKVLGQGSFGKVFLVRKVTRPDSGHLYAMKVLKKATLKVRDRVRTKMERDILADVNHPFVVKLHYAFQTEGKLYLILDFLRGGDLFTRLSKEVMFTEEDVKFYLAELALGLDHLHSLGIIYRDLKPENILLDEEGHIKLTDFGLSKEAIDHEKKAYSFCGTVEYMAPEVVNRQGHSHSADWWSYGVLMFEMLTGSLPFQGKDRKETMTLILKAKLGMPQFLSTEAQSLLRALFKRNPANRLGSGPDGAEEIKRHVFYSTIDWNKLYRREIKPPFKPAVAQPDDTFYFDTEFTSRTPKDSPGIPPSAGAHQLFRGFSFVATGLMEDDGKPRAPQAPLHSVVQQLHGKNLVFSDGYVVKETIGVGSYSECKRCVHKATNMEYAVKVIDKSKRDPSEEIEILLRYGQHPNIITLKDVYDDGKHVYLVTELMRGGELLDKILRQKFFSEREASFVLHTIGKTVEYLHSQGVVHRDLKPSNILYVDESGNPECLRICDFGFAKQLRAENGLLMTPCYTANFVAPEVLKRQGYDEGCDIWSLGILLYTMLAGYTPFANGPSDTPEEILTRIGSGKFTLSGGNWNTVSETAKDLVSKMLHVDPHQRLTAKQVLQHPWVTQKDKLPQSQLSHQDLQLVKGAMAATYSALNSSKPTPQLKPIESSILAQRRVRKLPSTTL
Here is the method: as §1

The target in assay [6] is T6, IRAK4 (Homo sapiens, UniProt Q9NWZ3).
T6 construct: lines 1-140) and Reaction Biology
T6 sequence (Q9NWZ3 1-460): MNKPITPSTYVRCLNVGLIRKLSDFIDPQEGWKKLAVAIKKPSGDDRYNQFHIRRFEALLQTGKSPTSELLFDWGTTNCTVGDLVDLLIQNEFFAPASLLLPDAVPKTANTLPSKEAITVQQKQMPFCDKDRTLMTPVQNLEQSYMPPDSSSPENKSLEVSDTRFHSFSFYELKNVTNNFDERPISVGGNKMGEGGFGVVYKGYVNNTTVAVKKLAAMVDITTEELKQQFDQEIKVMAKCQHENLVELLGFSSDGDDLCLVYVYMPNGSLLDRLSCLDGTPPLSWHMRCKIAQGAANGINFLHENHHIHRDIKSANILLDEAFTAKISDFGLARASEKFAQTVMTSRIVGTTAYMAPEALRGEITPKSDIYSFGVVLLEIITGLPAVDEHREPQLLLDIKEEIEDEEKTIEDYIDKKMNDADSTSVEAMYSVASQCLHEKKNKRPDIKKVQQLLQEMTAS
On the procedure: as §1

Assay [7] deals with T7, MARK3 (Homo sapiens, UniProt P27448).
T7 construct: lines 1-140) and Reaction Biology
T7 sequence (P27448 whole entry): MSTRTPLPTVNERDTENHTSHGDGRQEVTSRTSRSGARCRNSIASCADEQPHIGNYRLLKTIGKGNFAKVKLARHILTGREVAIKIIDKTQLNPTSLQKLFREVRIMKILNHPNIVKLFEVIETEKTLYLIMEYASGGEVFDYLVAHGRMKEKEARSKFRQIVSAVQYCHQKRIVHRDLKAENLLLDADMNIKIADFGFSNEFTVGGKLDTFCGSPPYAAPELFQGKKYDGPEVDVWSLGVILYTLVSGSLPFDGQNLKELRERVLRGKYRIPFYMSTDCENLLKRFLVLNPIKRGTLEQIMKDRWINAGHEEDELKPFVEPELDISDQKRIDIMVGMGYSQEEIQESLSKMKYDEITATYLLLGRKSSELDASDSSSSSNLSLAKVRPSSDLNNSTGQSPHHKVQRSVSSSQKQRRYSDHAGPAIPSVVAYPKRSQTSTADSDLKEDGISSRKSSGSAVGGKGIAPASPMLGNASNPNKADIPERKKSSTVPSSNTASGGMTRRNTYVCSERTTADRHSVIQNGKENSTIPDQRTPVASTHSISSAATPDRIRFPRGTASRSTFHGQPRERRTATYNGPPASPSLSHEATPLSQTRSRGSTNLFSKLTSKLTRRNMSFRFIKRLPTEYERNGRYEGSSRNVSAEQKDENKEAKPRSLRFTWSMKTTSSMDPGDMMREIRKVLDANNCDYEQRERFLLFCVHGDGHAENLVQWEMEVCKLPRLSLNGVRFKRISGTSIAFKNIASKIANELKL
On the procedure: as §1

Assay [8] addresses T8, BRSK1 (Homo sapiens, UniProt Q8TDC3).
T8 construct: lines 1-140) and Reaction Biology
T8 sequence (Q8TDC3 1-778): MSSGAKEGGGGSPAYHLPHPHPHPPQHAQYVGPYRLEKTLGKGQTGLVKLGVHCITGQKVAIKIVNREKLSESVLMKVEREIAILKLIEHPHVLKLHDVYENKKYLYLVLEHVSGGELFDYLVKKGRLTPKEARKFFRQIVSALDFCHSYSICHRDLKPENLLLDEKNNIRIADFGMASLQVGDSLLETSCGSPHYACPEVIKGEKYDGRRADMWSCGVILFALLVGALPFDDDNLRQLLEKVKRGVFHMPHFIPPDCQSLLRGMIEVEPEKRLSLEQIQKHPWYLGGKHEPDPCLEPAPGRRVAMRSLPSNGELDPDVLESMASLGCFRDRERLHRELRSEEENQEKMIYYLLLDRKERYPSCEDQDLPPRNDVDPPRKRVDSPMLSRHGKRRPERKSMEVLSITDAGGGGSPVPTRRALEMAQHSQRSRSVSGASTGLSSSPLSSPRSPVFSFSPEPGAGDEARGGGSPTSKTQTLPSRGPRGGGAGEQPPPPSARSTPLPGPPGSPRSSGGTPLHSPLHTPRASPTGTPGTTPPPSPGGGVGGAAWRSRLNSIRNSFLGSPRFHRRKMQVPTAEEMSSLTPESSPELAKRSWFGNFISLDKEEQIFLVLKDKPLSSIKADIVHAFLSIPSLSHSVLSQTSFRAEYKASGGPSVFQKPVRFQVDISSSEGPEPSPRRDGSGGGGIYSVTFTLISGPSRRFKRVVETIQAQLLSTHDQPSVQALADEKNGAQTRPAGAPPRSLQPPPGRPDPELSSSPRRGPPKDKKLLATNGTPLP
Here is the method:
as §1

The target in assay [9] is T9, PKBb (Homo sapiens, UniProt P31751).
T9 construct: lines 1-140) and Reaction Biology
T9 sequence (P31751 whole entry): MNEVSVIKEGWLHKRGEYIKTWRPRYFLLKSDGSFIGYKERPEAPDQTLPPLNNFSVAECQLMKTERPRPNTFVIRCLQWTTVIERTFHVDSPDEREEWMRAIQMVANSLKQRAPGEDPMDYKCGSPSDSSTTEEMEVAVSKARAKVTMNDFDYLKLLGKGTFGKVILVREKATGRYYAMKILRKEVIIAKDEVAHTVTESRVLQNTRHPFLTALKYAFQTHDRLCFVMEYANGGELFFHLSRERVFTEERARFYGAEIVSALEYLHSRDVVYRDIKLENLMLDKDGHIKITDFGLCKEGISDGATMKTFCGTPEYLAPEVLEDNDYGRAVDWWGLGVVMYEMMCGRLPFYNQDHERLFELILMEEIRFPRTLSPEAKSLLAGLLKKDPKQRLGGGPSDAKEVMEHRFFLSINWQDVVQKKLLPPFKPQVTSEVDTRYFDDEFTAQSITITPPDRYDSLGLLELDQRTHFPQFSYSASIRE
On the procedure: as §1

Consider `COCCOc1ccc(-c2cn(-c3ccccc3)c3nc[nH]c(=O)c23)cc1` [DMX-5804, 5-[4-(2-methoxy-ethoxy)-phenyl]-7-phenyl-3,7-dihydro-pyrrolo[2,3-d]pyrimidin-4-one], for which the remaining activity at 1 µM worked out at 99% in assay [1]; 117% in [2]; 121% in [3]; 113% in assay [4]; 86% in assay [5]; 97% in assay [6]. For the same compound, the values for the remaining activity at 1 µM in assay [7], in assay [8] and in assay [9] were 88%, 97% and 116%, respectively.

As to `Oc1ncnc2c1c(-c1ccccc1)cn2-c1ccccc1` [F1386-0303, 5,7-diphenyl-7H-pyrrolo[2,3-d]pyrimidin-4-ol], the remaining activity at 1 µM stood at 96% in assay [1]; 109% in assay [2]; 102% in [3]; 102% in assay [4]; 89% in [5]; 103% in assay [6]. For the same compound, the figures for the remaining activity at 1 µM in [7], in assay [8] and in [9] were 111%, 84% and 95%, respectively.

Take `Nc1ncc(C(=O)NC2CN(C(=O)C3CC3)C2)c2ccc(-c3cccc(F)c3)nc12` [GNE-495]: the residual activity was found to be 51% in assay [1] (1 μM); 93% in assay [2] (1 μM); 69% in assay [3] (1 μM); 97% in assay [4] (1 μM); 65% in assay [5] (1 μM); 75% in assay [6] (1 μM). Further, the residual activity turned out to be 46% in assay [7] (1 μM), 71% in assay [8] (1 μM) and 99% in assay [9] (1 μM).

Regarding `O=C1Nc2ccc(I)cc2/C1=C/c1cc(Br)c(O)c(Br)c1` [GW5074], the remaining activity at 1 µM in assay [1] amounted to 50%; in assay [2], 114%; in assay [3], 74%; in [4], 62%; in assay [5] it was 32%; in [6], 78%. Moreover, the remaining activity at 1 µM came to 72% in assay [7], 68% in assay [8] and 69% in assay [9].

Take `O=C1Cc2c([nH]c3ccc(Br)cc23)-c2ccccc2N1` [Kenpaullone]: the remaining activity at 1 µM in [1] was determined as 39%; in assay [2], 100%; in assay [3] it was 90%; in assay [4], 88%; in assay [5] it was 84%; in assay [6], 65%. Moreover, the remaining activity at 1 µM in [7] is 62%; in assay [8] it was 55%; in assay [9], 106%.

A word on the residual activity: it is the activity still measured, relative to the control.
